Experimental findings from patent US10787452B2 (Vertex Pharmaceuticals Incorporated, priority 2012, dated 2020) are described below.

The test system of the test is HCT116 colorectal cancer cells. The test can be described thus: Cisplatin sensitization assay (96 h cell viability MTS).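 Note: compound concentration needed to lower the Cisplatin-alone IC50 by a set fold.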 In kind it is cell-based. The conditions noted are these: 96 h MTS, compound plus Cisplatin. The method, then:
Compounds can be screened for their ability to sensitize HCT116 colorectal cancer cells to Cisplatin using a 96 h cell viability (MTS) assay. […] Compounds and Cisplatin are then both added simultaneously to the cell media in 2-fold serial dilutions from a top final concentration of 10 μM as a full matrix of concentrations in a final cell volume of 200 μl, and the cells are then incubated at 37° C. in 5% CO2. After 96 h, 40 μl of MTS reagent (Promega G358a) is added to each well and the cells are incubated for 1 h at 37° C. in 5% CO2.
Regarding `CN1CCN(C(=O)c2ccc(-c3ccncc3NC(=O)c3c(N)nn4cc(F)cnc34)cc2)CC1` [I-C-25, 2-amino-6-fluoro-N-(4-(4-(4-methylpiperazine-1-carbonyl)phenyl)pyridin-3-yl)pyrazolo[1,5-a]pyrimidine-3-carboxamide], the “Cisplatin Sensitization Assay” value is recorded as “+++ (Compounds with a Cisplatin sensitization value of <0.02 μM are marked with “+++.”)”.
For the compound `Nc1nn2cc(F)cnc2c1C(=O)Nc1cnccc1-c1ccnnc1` [I-C-26, 2-amino-6-fluoro-N-(4-(pyridazin-4-yl)pyridin-3-yl)pyrazolo[1,5-a]pyrimidine-3-carboxamide], the “Cisplatin Sensitization Assay” value was “++ (Compounds with a Cisplatin sensitization value >0.02 μM but <0.2 μM are marked with “++.”)”.
`COc1ccc(-c2ccncc2NC(=O)c2c(N)nn3cc(F)cnc23)cn1` [I-C-27, 2-amino-6-fluoro-N-(6-methoxy-[3,4′-bipyridin]-3′-yl)pyrazolo[1,5-a]pyrimidine-3-carboxamide]: the “Cisplatin Sensitization Assay” value is reported as “++ (Compounds with a Cisplatin sensitization value >0.02 μM but <0.2 μM are marked with “++.”)”.
As for `Cc1cnccc1-c1ccncc1NC(=O)c1c(N)nn2cc(F)cnc12` [I-C-29, 2-amino-6-fluoro-N-(3′-methyl-[4,4′-bipyridin]-3-yl)pyrazolo[1,5-a]pyrimidine-3-carboxamide], the entry is “+++ (Compounds with a Cisplatin sensitization value of <0.02 μM are marked with “+++.”)”; as for `Cc1ccncc1-c1ccncc1NC(=O)c1c(N)nn2cc(F)cnc12` [I-C-30, 2-amino-6-fluoro-N-(4-methyl-[3,4′-bipyridin]-3′-yl)pyrazolo[1,5-a]pyrimidine-3-carboxamide], “+++ (Compounds with a Cisplatin sensitization value of <0.02 μM are marked with “+++.”)”.
Consider `Cc1nnccc1-c1ccncc1NC(=O)c1c(N)nn2cc(F)cnc12` [I-C-31, 2-amino-6-fluoro-N-(4-(3-methylpyridazin-4-yl)pyridin-3-yl)pyrazolo[1,5-a]pyrimidine-3-carboxamide], for which the “Cisplatin Sensitization Assay” value is reported as “+++ (Compounds with a Cisplatin sensitization value of <0.02 μM are marked with “+++.”)”.
For the compound `Cc1ccnnc1-c1ccncc1NC(=O)c1c(N)nn2cc(F)cnc12` [I-C-33, 2-amino-6-fluoro-N-(4-(4-methylpyridazin-3-yl)pyridin-3-yl)pyrazolo[1,5-a]pyrimidine-3-carboxamide], the “Cisplatin Sensitization Assay” value was “+ (Compounds with a Cisplatin sensitization value >0.2 μM but <5 μM are marked with “+.”)”.
Then `Cc1nc(F)ccc1-c1ccncc1NC(=O)c1c(N)nn2cc(F)cnc12` [I-C-34, 2-amino-6-fluoro-N-(6-fluoro-2-methyl-[3,4′-bipyridin]-3′-yl)pyrazolo[1,5-a]pyrimidine-3-carboxamide], with “+++ (Compounds with a Cisplatin sensitization value of <0.02 μM are marked with “+++.”)”.
As for `Nc1nn2cc(F)cnc2c1C(=O)Nc1cnccc1-c1cccnc1F` [I-C-35, 2-amino-6-fluoro-N-(2-fluoro-[3,4′-bipyridin]-3′-yl)pyrazolo[1,5-a]pyrimidine-3-carboxamide], the entry is “+++ (Compounds with a Cisplatin sensitization value of <0.02 μM are marked with “+++.”)”.
For `Cc1cccnc1-c1ccncc1NC(=O)c1c(N)nn2cc(F)cnc12` [I-C-36, 2-amino-6-fluoro-N-(3-methyl-[2,4′-bipyridin]-3′-yl)pyrazolo[1,5-a]pyrimidine-3-carboxamide], the “Cisplatin Sensitization Assay” value is “+++ (Compounds with a Cisplatin sensitization value of <0.02 μM are marked with “+++.”)”.
Then `Nc1nn2cc(F)cnc2c1C(=O)Nc1cnccc1-c1cccnc1Cl` [I-C-37, 2-amino-N-(2-chloro-[3,4′-bipyridin]-3′-yl)-6-fluoropyrazolo[1,5-a]pyrimidine-3-carboxamide], with “+++ (Compounds with a Cisplatin sensitization value of <0.02 μM are marked with “+++.”)”; and `CN1CCC(C(=O)N2CC=C(c3c(F)cncc3NC(=O)c3c(N)nn4cc(F)cnc34)CC2)CC1` [I-C-38, 2-amino-6-fluoro-N-(5-fluoro-1′-(1-methylpiperidine-4-carbonyl)-1′,2′,3′,6′-tetrahydro-[4,4′-bipyridin]-3-yl)pyrazolo[1,5-a]pyrimidine-3-carboxamide], with “++ (Compounds with a Cisplatin sensitization value >0.02 μM but <0.2 μM are marked with “++.”)”; and `Cc1nc(C(=O)N2CCN(C)CC2)ccc1-c1ccncc1NC(=O)c1c(N)nn2cc(F)cnc12` [I-C-39, 2-amino-6-fluoro-N-(2-methyl-6-(4-methylpiperazine-1-carbonyl)-[3,4′-bipyridin]-3′-yl)pyrazolo[1,5-a]pyrimidine-3-carboxamide], with “+++ (Compounds with a Cisplatin sensitization value of <0.02 μM are marked with “+++.”)”.
For the compound `Cc1nc(N2CCN(C)CC2)ccc1-c1ccncc1NC(=O)c1c(N)nn2cc(F)cnc12` [I-C-40, 2-amino-6-fluoro-N-(2-methyl-6-(4-methylpiperazin-1-yl)-[3,4′-bipyridin]-3′-yl)pyrazolo[1,5-a]pyrimidine-3-carboxamide], the “Cisplatin Sensitization Assay” value was “+++ (Compounds with a Cisplatin sensitization value of <0.02 μM are marked with “+++.”)”.
In the case of `Cc1nc(O[C@@H]2CCN(C)C2)ccc1-c1ccncc1NC(=O)c1c(N)nn2cc(F)cnc12` [I-C-41, (R)-2-amino-6-fluoro-N-(2-methyl-6-((1-methylpyrrolidin-3-yl)oxy)-[3,4′-bipyridin]-3′-yl)pyrazolo[1,5-a]pyrimidine-3-carboxamide], the “Cisplatin Sensitization Assay” value is reported as “+++ (Compounds with a Cisplatin sensitization value of <0.02 μM are marked with “+++.”)”.
`Nc1nn2cc(F)cnc2c1C(=O)Nc1cnccc1C1CC1` [I-C-42, 2-amino-N-(4-cyclopropylpyridin-3-yl)-6-fluoropyrazolo[1,5-a]pyrimidine-3-carboxamide]: the “Cisplatin Sensitization Assay” value is “++ (Compounds with a Cisplatin sensitization value >0.02 μM but <0.2 μM are marked with “++.”)”.
Then `CN1CCN(C(=O)c2ccc(-c3c(F)cncc3NC(=O)c3c(N)nn4cc(F)cnc34)cc2)CC1` [I-C-43, 2-amino-6-fluoro-N-(5-fluoro-4-(4-(4-methylpiperazine-1-carbonyl)phenyl)pyridin-3-yl)pyrazolo[1,5-a]pyrimidine-3-carboxamide], with “+++ (Compounds with a Cisplatin sensitization value of <0.02 μM are marked with “+++.”)”; and `Nc1nn2cc(F)cnc2c1C(=O)Nc1cnccc1-c1ccc(C(=O)N2CCNCC2)cc1` [I-C-44, 2-amino-6-fluoro-N-(4-(4-(piperazine-1-carbonyl)phenyl)pyridin-3-yl)pyrazolo[1,5-a]pyrimidine-3-carboxamide], with “+++ (Compounds with a Cisplatin sensitization value of <0.02 μM are marked with “+++.”)”; and `Cc1cc(C(=O)N2CCN(C)CC2)ccc1-c1ccncc1NC(=O)c1c(N)nn2cc(F)cnc12` [I-C-45, 2-amino-6-fluoro-N-(4-(2-methyl-4-(4-methylpiperazine-1-carbonyl)phenyl)pyridin-3-yl)pyrazolo[1,5-a]pyrimidine-3-carboxamide], with “+++ (Compounds with a Cisplatin sensitization value of <0.02 μM are marked with “+++.”)”.
